From PMC6656724 (Communications Biology, 2019)
Read-outs that look alike come from different tables or passages of the source.

Columns and labels:
[1] = Mouse brain penetration study; type: in vivo, female C57BL6 mice; details: mouse, 1 mg/kg i.v.; for In brain / In blood: single mice, analyte inhibitor 1 (also after prodrugs) or 1h
Protocol: Inhibitor 1 (and prodrugs 1a, 1b, 1c and 1d) was dosed as a bolus solution intravenously at 1 mg free base/kg (dose volume: 5 mL/kg; dose vehicle: 5% DMSO; 95% saline (inhibitor 1) or 5% DMSO; 40% PEG400; 55% MilliQ H2O (prodrugs 1a, 1b, 1c and 1d)) to female C57BL6 mice (n = 6). At 5 min and 60 min following intravenous bolus injection of test compound, mice (n = 3/timepoint) were placed under terminal anaesthesia with isofluorane. A blood sample was taken by cardiac puncture, the […] decapitated and the brain removed. Brain weight was noted and each brain homogenised with two volumes of methanol (2 mL/g brain). Each blood sample was diluted with distilled water (1:10). Diluted blood and the brain homogenates were then stored frozen until preparation and analysis by UPLC-MS/MS. For each mouse at each timepoint for 1, the concentration in brain (ng/g) was divided by the concentration in blood (ng/mL) to give a brain:blood ratio. The mean value obtained was quoted. For prodrugs 1a to 1d, only the concentration of 1 in blood (ng/mL) and brain (ng/g) was reported.
A rapid and sensitive ultra-performance chromatography/tandem mass spectrometry (UPLC-MS/MS) method was developed and validated for the determination of inhibitor 1 and prodrug 1b (rat only). Chromatographic analysis was conducted on a Waters Acquity™ UPLC system. Chromatographic separation was performed with an Acquity™ UPLC BEH C18 column (50 × 2.1 mm, 1.7 µm, 130Å; Waters Corp.) maintained at 40 °C in a column oven. The mobile phase consisted of water with 0.01% formic acid and ACN with 0.01 % formic acid and it was delivered at a flow rate of 0.6 mL/min under gradient eluent conditions within an analysis cycle time of 3 min. The mass detection was conducted on a Waters Xevo™ TQs mass spectrometer equipped with a ScanWave™ technology. Quantitation of the analyte was performed in electrospray positive ionisation mode (ESI^+) using multiple reaction monitoring. The optimised fragmentation transition was m/z = 270.17 → 196.19 (mouse) or m/z = 270.17 → 223.76 (rat) for inhibitor 1 and m/z = 297.83 → 195.74 for prodrug 1b (rat).
Sample extraction for blood and brain homogenate was by protein precipitation (1:3 or 1:6) using ACN containing suitable internal standard. Extracts were vortexed followed by centrifugation (2800 rpm for 10 min). An aliquot of each supernatant was then diluted two-fold in distilled water ready for analysis by UPLC-MS/MS.
The weighted 1/x^2 calibration line was linear in the dynamic range of 1–5000 ng/mL for inhibitor 1 and 1–1000 ng/mL for prodrug 1b with a correlation coefficient (r^2) > 0.99 (inhibitor 1) or 0.98 (prodrug 1b). The quality control samples (QC) were prepared by using the same spiking scheme as the calibration samples and up to four different target concentration brain levels: 2 ng/mL (LQC), 40 ng/mL (MQC), 100 ng/mL (HQC) and 2000 ng/mL. Data collection, peak integration and calculations were performed using MassLynx software, version 2.1.

[2] = in vitro; type: in vitro ADME, canine; details: dog; for Papp A→B at 1 h, 10 µM / Papp B→A at 1 h, 10 µM / recovery at 1 h, 10 µM: MDCK; for efflux ratio at 1 h, 10 µM: pH 7.4, wild type MDCK, Papp B>A / Papp A>B
Protocol: (§1) internal standard at each timepoint. […]
(§2) including an analytical internal standard.
(§3) Apparent permeability (Papp) values were determined from the relationship: […]
(§4) Where V is the volume of each Transwell compartment (apical 125 µL, basolateral 600 µL), and concentrations are the relative MS responses for compound (normalized to internal standard) in the donor chamber before incubation and acceptor chamber at the end of the incubation. Area = area of cells exposed for drug transfer (0.33 cm 2).
(§5) Efflux ratios (Papp B>A / Papp A>B) were calculated for each compound from the […]
(§6) MDR1-MDCK cell line has been engineered to overexpress the efflux transporter, MDR1 (P-glycoprotein), and a finding of good permeability B>A, but poor […]
(§7) order to confirm the involvement of MDR1 in any efflux seen, an “ef fective efflux ratio” (EER) was calculated by comparing compound efflux ratios (ER) in the two cell types, i.e. EER = ER (MDR1-MDCK)/ ER (wild-type MDCK). This ratio illustrates the effect of the over-expressed MDR1 normalised for the background movement of compound through the wild-type cells.
(§8) Lucifer Yellow (LY) was added to the apical buffer in all wells to assess viability of the cell layer. As LY cannot freely permeate lipophilic barriers, a high degree of LY […]
(§9) validity of other wells on the plate.
(§10) Compound recovery from the wells was determined from MS responses (normalized to internal standard) in donor and acceptor chambers at the end of incubation compared to response in the donor chamber pre-incubation.

[3] = system: MDR1 (P-glycoprotein); assay: in vitro; type: in vitro ADME, canine; details: dog; for efflux ratio at 1 h, 10 µM: pH 7.4, MDR1 MDCK, Papp B>A / Papp A>B
Protocol: as §1, §2, §3, §4, §5, §6, §7, §8, §9, §10

[4] = Stability in mouse hepatic microsomes; details: for half-life at 1 µM: mouse, pooled liver microsomes
Protocol: 3.6.3 Compound stability in mouse hepatic microsomes and rat hepatocytes
A microsomal stability assay was performed as described in the BioFocus Standard
Operating Procedure ADME-SOP-83, using pooled hepatic mouse
Test and control compounds (midazolam,
dextromethorphan), were prepared in DMSO and incubated at an initial concentration
in the presence of the cofactor, NADPH (1 mM). Aliquots were removed at 0, 5, 10,
20 and 40 minutes for termination of reactions and compound extraction with ACN
containing an analytical internal standard. Samples were centrifuged and the
supernatant fractions analysed for parent compound by mass spectrometry (LC-
MS/MS). The amount of compound remaining (expressed as %) was determined from
the MS response in each sample relative to that in the T = 0 samples (normalised for
internal standard). Ln plots of the % remaining were used to determine the half-life
the slope of the Ln % remaining vs time curve. The in vitro intrinsic clearance Clint

[5] = pH 7.4, Papp A>B n=1, wild type MDCK
[6] = pH 7.4, Papp A>B n=2, wild type MDCK
[7] = pH 7.4, Papp B>A n=1, wild type MDCK
[8] = pH 7.4, Papp B>A n=2, wild type MDCK
[9] = pH 7.4, wild type MDCK, read-out: Papp A>B Mean
[10] = pH 7.4, wild type MDCK, read-out: Papp B>A Mean
[11] = pH 7.4, wild type MDCK, read-out: Recovery A>B Mean
[12] = pH 7.4, wild type MDCK, read-out: Recovery A>B n=1
[13] = pH 7.4, wild type MDCK, read-out: Recovery A>B n=2
[14] = pH 7.4, wild type MDCK, read-out: Recovery B>A Mean
[15] = pH 7.4, wild type MDCK, read-out: Recovery B>A n=1
[16] = pH 7.4, wild type MDCK, read-out: Recovery B>A n=2
[17] = MDCK-MDR1, pH 7.4, MDR1 MDCK, read-out: Papp A>B Mean
[18] = MDCK-MDR1, pH 7.4, MDR1 MDCK, read-out: Papp B>A Mean
[19] = MDCK-MDR1, pH 7.4, MDR1 MDCK, read-out: Recovery A>B Mean
[20] = MDCK-MDR1, pH 7.4, MDR1 MDCK, read-out: Recovery A>B n=1
[21] = MDCK-MDR1, pH 7.4, MDR1 MDCK, read-out: Recovery A>B n=2
[22] = MDCK-MDR1, pH 7.4, MDR1 MDCK, read-out: Recovery B>A Mean
[23] = MDCK-MDR1, pH 7.4, MDR1 MDCK, read-out: Recovery B>A n=1
[24] = MDCK-MDR1, pH 7.4, MDR1 MDCK, read-out: Recovery B>A n=2
[25] = MDCK-MDR1, pH 7.4, Papp A>B n=1, MDR1 MDCK
[26] = MDCK-MDR1, pH 7.4, Papp A>B n=2, MDR1 MDCK
[27] = MDCK-MDR1, pH 7.4, Papp B>A n=1, MDR1 MDCK
[28] = MDCK-MDR1, pH 7.4, Papp B>A n=2, MDR1 MDCK
[29] = Half-life Mean, mouse hepatic microsomes
[30] = Half-life n=1, mouse hepatic microsomes
[31] = Half-life n=2, mouse hepatic microsomes

Row | SMILES | Papp A→B at 1 h, 10 µM [2, 5] | Papp A→B at 1 h, 10 µM [2, 6] | Papp B→A at 1 h, 10 µM [2, 7] | Papp B→A at 1 h, 10 µM [2, 8] | Papp A→B at 1 h, 10 µM [2, 9] | Papp B→A at 1 h, 10 µM [2, 10] | recovery at 1 h, 10 µM [2, 11] | recovery at 1 h, 10 µM [2, 12] | recovery at 1 h, 10 µM [2, 13] | recovery at 1 h, 10 µM [2, 14] | recovery at 1 h, 10 µM [2, 15] | recovery at 1 h, 10 µM [2, 16] | efflux ratio at 1 h, 10 µM [2] | Papp A→B at 1 h, 10 µM [3, 17] | Papp B→A at 1 h, 10 µM [3, 18] | recovery at 1 h, 10 µM [3, 19] | recovery at 1 h, 10 µM [3, 20] | recovery at 1 h, 10 µM [3, 21] | recovery at 1 h, 10 µM [3, 22] | recovery at 1 h, 10 µM [3, 23] | also measured
1 | Cc1cc2c(c(C)c1Cl)N(CC(=O)OC(C)C)C(=O)CO2 [1c] | – | – | – | – | – | – | – | – | – | – | – | – | – | – | – | – | – | – | – | – | In brain ([1]; 60 min): ≤ LLoQ
2 | Oc1ccc(-c2csc3nc(-c4ccccc4)nn23)c(O)c1 [compound 3, 4-(2-phenyl[1,2,4]triazolo[5,1-b][1,3]thiazol-6-yl)benzene-1,3-diol] | 2.7 ×10⁻⁶ cm/s | 3.9 ×10⁻⁶ cm/s | 2.7 ×10⁻⁶ cm/s | 3.2 ×10⁻⁶ cm/s | 3.3 ×10⁻⁶ cm/s | 2.95 ×10⁻⁶ cm/s | 15% | 15% | 15% | 49% | 50% | 48% | 0.89 | 3.25 ×10⁻⁶ cm/s | 4.95 ×10⁻⁶ cm/s | 18% | 15% | 21% | 49.5% | 51% | recovery at 1 h, 10 µM [3, 24]: 48%; Papp A→B at 1 h, 10 µM [3, 25]: 2.9 ×10⁻⁶ cm/s; Papp A→B at 1 h, 10 µM [3, 26]: 3.6 ×10⁻⁶ cm/s; Papp B→A at 1 h, 10 µM [3, 27]: 4.9 ×10⁻⁶ cm/s; Papp B→A at 1 h, 10 µM [3, 28]: 5 ×10⁻⁶ cm/s; efflux ratio at 1 h, 10 µM [3]: 1.5; Mean intrinsic clearance ([4]; mouse hepatic microsomes): 49 µL/min/mg microsome protein; half-life at 1 µM [4, 29]: 59 min; half-life at 1 µM [4, 30]: 48 min; half-life at 1 µM [4, 31]: 69 min
3 | Cn1c(C(=O)N[C@@H](C(=O)O)c2ccccc2)cc2cc(F)ccc21 [compound 5, (R)-2-(5-fluoro-1-methyl-1H-indole-2-carboxamido)-2-phenylacetic acid] | 2.6 ×10⁻⁶ cm/s | 2.1 ×10⁻⁶ cm/s | 1.6 ×10⁻⁶ cm/s | 1.4 ×10⁻⁶ cm/s | 2.35 ×10⁻⁶ cm/s | 1.5 ×10⁻⁶ cm/s | 81% | 81% | 81% | 83.5% | 86% | 81% | 0.62 | 2.6 ×10⁻⁶ cm/s | 2.25 ×10⁻⁶ cm/s | 83% | 87% | 79% | 81.5% | 80% | recovery at 1 h, 10 µM [3, 24]: 83%; Papp A→B at 1 h, 10 µM [3, 25]: 2.8 ×10⁻⁶ cm/s; Papp A→B at 1 h, 10 µM [3, 26]: 2.4 ×10⁻⁶ cm/s; Papp B→A at 1 h, 10 µM [3, 27]: 2.4 ×10⁻⁶ cm/s; Papp B→A at 1 h, 10 µM [3, 28]: 2.1 ×10⁻⁶ cm/s; efflux ratio at 1 h, 10 µM [3]: 0.88; Mean intrinsic clearance ([4]; mouse hepatic microsomes): < 28 µL/min/mg microsome protein; half-life at 1 µM [4, 29]: > 100 min; half-life at 1 µM [4, 30]: > 100 min; half-life at 1 µM [4, 31]: > 100 min
4 | Cc1cc2c(c(C)c1Cl)N(Cc1nn[nH]n1)C(=O)CO2 [1h, 6-chloro-5,7-dimethyl-4-(2H-tetrazol-5-ylmethyl)-1,4-benzoxazin-3-one] | – | – | – | – | – | – | – | – | – | – | – | – | – | – | – | – | – | – | – | – | Blood levels lower than those observed for 1 [1]: ~ 50%; Brain penetrance (in words) [1]: very limited brain penetrance; In blood ([1]; 60 min): ≤ LLoQ; In brain ([1]; 60 min): ≤ LLoQ
5 | COC(=O)CN1C(=O)COc2cc(C)c(Cl)c(C)c21 [1a] | – | – | – | – | – | – | – | – | – | – | – | – | – | – | – | – | – | – | – | – | In blood ([1]; 5 min, listed as prodrug 1a, 1 mg/kg): ≤ LLoQ
6 | CC(CSc1ccc(Cl)cc1)C(=O)O (stereo not drawn) [compound 6, 3-[(4-chlorophenyl)thio]-2-methylpropanoic acid] | 33 ×10⁻⁶ cm/s | 41 ×10⁻⁶ cm/s | 51 ×10⁻⁶ cm/s | 50 ×10⁻⁶ cm/s | 37 ×10⁻⁶ cm/s | 50.5 ×10⁻⁶ cm/s | 66% | 57% | 75% | 93.5% | 98% | 89% | 1.36 | 50.5 ×10⁻⁶ cm/s | 41.5 ×10⁻⁶ cm/s | 82% | 68% | 96% | 80% | 93% | recovery at 1 h, 10 µM [3, 24]: 67%; Papp A→B at 1 h, 10 µM [3, 25]: 40 ×10⁻⁶ cm/s; Papp A→B at 1 h, 10 µM [3, 26]: 61 ×10⁻⁶ cm/s; Papp B→A at 1 h, 10 µM [3, 27]: 51 ×10⁻⁶ cm/s; Papp B→A at 1 h, 10 µM [3, 28]: 32 ×10⁻⁶ cm/s; efflux ratio at 1 h, 10 µM [3]: 0.81; Mean intrinsic clearance ([4]; mouse hepatic microsomes): < 28 µL/min/mg microsome protein; half-life at 1 µM [4, 29]: > 100 min; half-life at 1 µM [4, 30]: > 100 min; half-life at 1 µM [4, 31]: > 100 min
